From patent US20220409617A1, “Drug Formulations and Methods of Treatment for Metabolic Disorders” (The Regents of the University of California, priority 2019, published 2022) come the findings set out here.

SMILES strings stand for the structures. “Also recorded” adds a separate entry of the source.

Assay [1] relates to mouse embryonic fibroblasts (MEFs). The assay is classed as cell-based. The note with it: 3 h pre-treatment then palmitate 250 μM 3 h, 893 5 μM, myriocin 10 μM, fumonisin B1 30 μM, NAV-2729 12.5 μM, YM201636 800 nM, celastrol 500 nM.
Protocol: Mitochondrial morphology was assessed by examining citrate synthesis expression under a high resolution microscopy. Specifically, the aspect ratio, branch length and roundness of mitochondria was assessed (FIG. 1).
LSL-KrasG12D mouse embryonic fibroblasts (MEFs) with and without Cre-mediated deletion of the STOP cassette were obtained from David Tuveson (Cold Spring Harbor Laboratory, Cold Spring Harbor N.Y., USA) in 2000. p53^flox/flox MEFs were derived in house (2015) from C57BL/6 mice using standard techniques and immortalized by transient expression of Cre recombinase and deletion of p53. MEFs were cultured and maintained in DMEM with 10% FBS and 1% penicillin-streptomycin. […] Stock solution of palmitic acid (ACROS Organics, cat # AC129702500) was prepared at 100 mM in ethanol. Palmitate (250 μM) was conjugated to 1% (w/v) fatty-acid free bovine serum albumin (Sigma, A8806) in DMEM at 37° C. for 20 min. For all immunofluorescence assays, 8,000 MEFs were seeded into 8-chamber slides (Cellvis, cat # C8-1.5H-N) 12-16 h before treatment. Cells were pre-treated with sphingolipid-like compound 893 (5 μM in water), myriocin (10 μM in methanol), fumonisin-B1 (30 μM in DMSO), or celastrol (500 nM in DMSO) for 3 h followed by a 3 h treatment with BSA-conjugated palmitate mixture or BSA alone.
Assay [2] concerns hepatic lipid accumulation. Nature of the assay: Hepatic steatosis and lipidomic profiling of liver and quadriceps muscle. The assay is classed as in vivo, mouse. The note with it: HFD-fed mice. As for the experimental part: Lipids were extracted from liver and quadriceps tissue using a modified MTBE method (Matyash et al, 2008; Abbott et al, 2013). Briefly, 10 mg/ml of tissue was homogenized in ice-cold 150 mM ammonium acetate using a bead homogenizer (1.4 mm ceramic) kept below 4° C. using liquid nitrogen vapor (Precellys 24 homogenizer with Cryolys cooling unit, Bertin Technologies, Montigny-le-Bretonneux, France). From this, 20 μl of homogenized tissues were added to glass vials containing MTBE and methanol (3:1 v/v, with 0.01% BHT), alongside 10 μl of an internal standard solution containing 10 μM each: phosphatidylcholine (PC) 17:0/17:0, phosphatidylethanolamine (PE) 17:0/17:0, phosphatidylserine (PS) 17:0/17:0, phosphatidylglycerol (PG) 17:0/17:0, lysophosphatidylcholine (LPC) 17:0, lysophosphatidylethanolamine (LPE) 14:0, ceramide (Cer) d18:1/17:0, dihydrosphingomyelin d18:0/12:0, diacylglycerol (DAG) 17:0/17:0, D5-triacylglycerol (TAG) 48:0, and cholesteryl ester (CE) 22:1. Samples were allowed to rotate at 4° C. overnight prior to the addition of 1 volume of ice-cold 150 mM ammonium acetate. Samples were vortexed thoroughly prior to centrifugation (2000×g, 5 min) to enable phase separation. […]
Extracted lipids were analyzed by liquid chromatography-mass spectrometry (LC-MS) using a Dionex Ultimate 3000 LC pump and Q Exactive Plus mass spectrometer equipped with a heated electrospray ionization (HESI) source (Thermo Fisher Scientific). […] Data were acquired in full scan/data-dependent MS2 mode (full scan resolution 70,000 FWHM, max ion injection time 50 ms, scan range m/z 200-1500), with the 10 most abundant ions being subjected to collision-induced dissociation using an isolation window of 1.5 Da and a normalized stepped collision energy of 15/27 eV, with product ions detected at a resolution of 17,500. […]
Lipids were analyzed using MS-DIAL (Tsugawa et al, 2015). Lipids were detected in both positive and negative ionization modes using a minimum peak height of 1×10^4 cps, a MS1 tolerance of 5 ppm and MS2 tolerance of 10 ppm, and a minimum identification score of 50%. […]

Regarding `CCCCCCCCc1ccc([C@H]2CCN[C@@H]2CO)cc1.Cl` [compound 893], the “Protection from palmitate-induced mitochondrial fragmentation (aspect ratio, branch length, roundness)” value in assay [1] is “robust protection from both ceramide- and palmitate-induced mitochondrial fragmentation; also recorded: preserved a tubular, branched mitochondrial network in palmitate-treated cells”. Further, the Hepatic steatosis result in assay [2] (120 mg/kg) is recorded as “eliminated hepatic steatosis”. The “Liver triglyceride and ceramide levels” value in assay [2] (treated for 4 weeks) was “restored normal triglyceride and ceramide levels in the liver”. The Muscle ceramide levels result in assay [2] (treated for 4 weeks, quadriceps) was “ceramide levels trended lower in muscle”.
